Patent US20250000903A1, “EXPANSION PROCESSES AND AGENTS FOR TUMOR INFILTRATING LYMPHOCYTES” (Iovance Biotherapeutics, Inc., priority 2021, published 2025)

Columns and labels:
Format in all cases: cell-based, human
[1] = test system: tumor-infiltrating lymphocytes (TIL); experiment: TIL ex vivo expansion with AKTi ipatasertib: expansion and viability; conditions: AKTi 1 μM during ex vivo expansion
Protocol: (§1) Patient tumors from different indications were received, fragmented, and subjected to an expansion protocol for TIL manufacturing. Different doses (0.3 μM and 1 μM) of the pan-AKT inhibitor (AKTi) ipatasertib were added to the culture during ex vivo expansion. The expansion potential, as well as the phenotypic and functional characteristics of TIL were evaluated on the final TIL product.

[2] = test system: tumor-infiltrating lymphocytes (TIL); experiment: Functional characteristics of final TIL product expanded with AKTi; conditions: AKTi treatment during ex vivo expansion
Protocol: as §1

[3] = test system: tumor-infiltrating lymphocytes (TIL); experiment: Phenotypic characteristics of final TIL product expanded with AKTi; conditions: AKTi 1 μM
Protocol: as §1

CC(C)NC[C@@H](C(=O)N1CCN(c2ncnc3c2[C@H](C)C[C@H]3O)CC1)c1ccc(Cl)cc1 [AKTi, ipatasertib]
expansion of TIL relative to control [1]: equivalent | viability of TIL relative to control [1]: equivalent | cytotoxicity [2]: increased | frequency of IFNγ+TNFα+CD8+ T cells [2]: increase | expression of CD38 and the transcription factors T-bet and Tox ([3]; CD39-CD69- cells): reduced | population of less differentiated CD39-CD69- cells ([3]; present even after re-stimulation): doubled
